In patent publication US20230203126A1, “A COMPOSITION COMPRISING S-ARRESTIN PEPTIDES” (WORG PHARMACEUTICALS (HANGZHOU) CO., LTD., priority 2019, published 2023):
No end group written: not given here.

Legend:
[1] = system: MHC II molecules on dendritic cells (CD11c+ cells); assay: In vivo MHC class II loading assay (DR3tg mice); design: species or system HLA-DR3-transgenic mice; conditions: 100 µg peptide s.c., spleen 2 h post injection, 72 h co-culture, vs PBS-injected control
Method: FIG. 2: Peptide 17JK is correctly loaded on MHC class II in vivo. Response of peptide-specific CD4+ T cells towards peptide loaded in vivo on dendritic cells is shown. HLA-DR3-transgenic mice were injected subcutaneously with 100 µg of 17JK peptide. 2 h post injection, spleens were dissected and CD11c+ cells (dendritic cells) were isolated. These CD11c+ cells were co-cultured with peptide-specific CD4+ cells for 72 h at 37° C. IFNy was measured in the supernatant of these cultures to evaluate the response to peptide by the CD4+ T cells. (*** p<0.001 Mann-Whitney U-test)
FIG. 3: Peptide 15N3K is correctly loaded on MHC class II in vivo. […] IFNy was measured in the supernatant of these cultures to evaluate the response to peptide by the CD4+ T cells. […]
When 100 µg of peptide 9K1K was injected in DR2tg mice or when peptide 17JK or 15N3K was injected in DR3tg mice, these peptides could be detected on dendritic cells (CD11c+ cells) in the spleens of these mice 2 h post injection. Activation (IFNY production) of peptide-specific CD4+ T cells by the isolated CD11 c+ cells was used as a read-out. […]
DR3tg or DR2tg mice were injected with 100 µg of peptide in 100 µl PBS subcutaneously (s.c.) in the flank. […] After 72 hours, supernatant of these co-cultures was collected and CD4+ T cell activation was analysed by IFNy ELISA (R&D Systems, Abingdon, UK). […]

[2] = molecular target: HLA-DRA1*0101, DRB1*0101 (DR1) (Homo sapiens, UniProt P01903+P01911, A100R/D57E/F55L/F60I/F76Y/I96L/L162R/M171V/P40L/Q125E/R42F/V115G/Y59C); assay: DR1
Method: Table printed on a drawing sheet, Figure 9
The patent's description of the figure: FIG. 9: Diverse patterns of in vitro peptide-MHC II binding for peptides 9K1, 17JK and 15N3K. Binding of peptides 9K1, 17JK and 15N3K to recombinant HLA-DRA1*0101, DRB1*0101 (DR1), DRB1*1501 (DR2), DRB1*0301 (DR3), DRB1*0401 (DR4), DRB1*1101 (DR11), DRB1*0405 (DR4*05) and DRB1*0901 (DR9) was assessed in vitro. IC50 values (µM) are presented and colour-coded per HLA-DR molecule. Low values (green) indicate strong binding, high values (red) indicate low(er) binding.
FIG. 9 depicts IC50 (µM) values of peptides 9K1K, 17JK and 15N3K binding to the indicated HLA-DR molecules and competing with a known competitor peptide. Values should be compared only within each HLA-DR molecule. Low IC50 values (green) indicate the strongest binder per HLA-DR molecule. Highest values per HLA-DR molecule (red) are indicative of the lowest binder for that HLA-DR molecule. Intermediate values are indicated in orange. […]
First copying reader's note: The sheet prints no unit; per the patent description the values are IC50 (µM) for peptide binding to the named HLA-DR molecules, with cell shading coding relative binding strength per HLA-DR molecule.
Where the first naming reader finds the target: description_of_the_figure: recombinant HLA-DRA1*0101, DRB1*0101 (DR1)

Row | Substance | CD4+ T cell activation (IFNy) by CD11c+ cells isolated from spleen of injected mice [1] | IC50 [2]
1 | KKKVIFKKISRDKSVTIYLGKKK-NH2 [15N3K] | significant CD4+ T cell activation | 
2 | KKKLTFRRDLYFSRVQVYKKK-NH2 [17JK] | significant CD4+ T cell activation | 2160 nM
